From patent US8889902B2, “Acetylsalicylic acid salts” (priority 2009, dated 2014)

What was measured:
[1] = test system: hyperthermia induced by intramuscular injection of pyrogenal; assay: Preventive antipyretic activity, pyrogenal hyperthermia; format: in vivo, Wistar rats; conditions: 100 mg/kg p.o. 1 h before pyrogenal
Experimental: Experiments were conducted on 48 Wistar rats with body mass 165-182 g by intramuscular injection of pyrogenal (Gamalei State Research Institution, Moscow, Russia) in 100 μg dose (Shwarz G Y, Syubaev R D, Vedomosti NCEG lekarstvennyh sredstv MZ RF 2000; 1:44-50 (Rus). Test substances were given p.o. one hour before the pyrogenal injection. Rectal temperature was measured by electric thermometer TERMO before injection of pyrogenal (baseline) and for 3 hours after injection. The antipyretic activity was evaluated by the reduction of hyperthermic reaction 2 hours after injection of pyrogenal that correlated well with the published data (10) about the peak of reaction (Table 6). Ambient temperature was kept at 20-21° C.

[2] = test system: carrageneen paw oedema; assay: Carrageneen oedema, preventive mode; format: in vivo, rats; conditions: 100 mg/kg p.o., preventive 6 times; 4 h
Experimental: The […] oedema was investigated by established method ([…], Patol Fiziol Eksp Ter, 2002(2):24-7 (Rus) on 42 rats with body mass of 178-220 g: […] The prevention index was calculated as indicated in previous section.

[3] = test system: CRP; assay: CRP levels in blood, carrageneen inflammation model; format: in vivo, rats; conditions: 100 mg/kg
Experimental: To evaluate the intensity of the inflammation process the CRP levels were determined by standard method on analyzer ? INTEGRA 400+ ? at the end of experiment (5 hours after injection of carrageneen).

[4] = test system: tail bleeding; assay: Tail bleeding time during thrombosis experiment; format: in vivo, rats; conditions: 25 mg/kg p.o., single dose; for Tail bleeding time, %: control = 100
Experimental: Additionally during the thrombosis experiment rat tail bleeding time was measured. The tail was transected 5 mm from the tip with scalpel and the tail was immediately immersed into 37° C. warm isotonic saline until termination of bleeding was noted. Termination of bleeding was defined as the time of complete stop of bleeding with no recurrence of bleeding within the next 30 s.

[5] = test system: rat ear skin temperature; assay: Ear skin temperature rise caused by NA, p.o. administration; format: in vivo, Wistar rats; conditions: for Max incr. %: NA alone = 100
Experimental: Male Wistar rats (280-330 g) were used. Animals were held in groups of 6 in climatized rooms at 22±1° C., relative humidity 60±5%, and 12/12-hour light/dark cycle with free access to drinking water and feed (R3—Lactamin AB, Sweden). For registration of changes in skin temperature of intact rats contactless temperature recording method was used (Papaliodis D et al, Br J Pharmacol 2008; 153:1382-1387). Temperature measurements were performed with a hand-held infrared thermometer (Model Proscan 510, TFA-Dostman). Animals were habituated to handling and to the infrared probe for 3 days before use. Temperature readings from the dorsal side of each ear were recorded without anaesthesia at beginning and during experiment. The ear temperature was measured every 5 min. for a period of up to 60 min. The animals were returned to their cages between measurements. NA, MD and MASA were dissolved in saline and pH was corrected immediately before usage. LA (MK 0524, Cayman Chemicals) was first dissolved in DMSO and then freshly diluted with 0.9% NaCl, on each day of the experiment. The rate of NA and LA combination was based on Summary of Product Characteristics for Tredaptive™ (nicotinic acid/laropiprant) 1000 mg/20 mg modified-release tablets.
9.2.3. Investigation of the Effect of MASA/NA and MD/NA Combination on Skin Temperature at Simultaneous or 45 Min Advance p.o. Administration

[6] = test system: serum lipid levels (C, HDL, LDL, TG); assay: Chronic hyperlipidemia model (Triton WR1339, 3 weeks); format: in vivo, Wistar rats; conditions: NA 50 mg/kg/d p.o.; TR 250 mg/kg 3x/week
Experimental: Male Wistar rats were used. Animals were held in climatized rooms 22±1° C. with relative humidity 60±5%, and 12/12-hour light/dark cycle with free access to water and feed. Initial weight of animals was 220-240 g. Experimental chronical (subchronical) hyperlipidemia/hypercholesterolemia was induced by TR using the method described by Levine and Saltzman (Levine S, Saltzman A, J Pharmacol Toxicol Meth 2007; 55:224-226). Animals received 250 mg/kg of TR solution via tail vein three times a week for 3 weeks. Solutions of test substances or water for Control and TR group was introduced p.o. once a day one hour before injection of TR solution or taking a blood sample according to the following scheme:
Blood for biochemical analyses was obtained after 1, 2 and 3 weeks (on the next day after the TR injection) by cardiac punction under ether narcosis. Serum was separated by centrifugation and analyzed for total C, HDL, LDL and TG levels by commercial kits. Statistics.

[7] = test system: blood flow in the right ear artery; assay: Cutaneous vasodilatation caused by nicotinic acid, ear artery blood flow; format: in vivo, Wistar rats; conditions: 15 mg/kg s.c.; maximal change to baseline
Experimental: Model. […] Blood pressure was measured in left carotid artery, ECG recorded by standard II lead. […] Blood flow, ECG and arterial pressure were registered by AD Instruments PowerLab systems and stored in computer for further processing. […] The average blood flow data for each animal were calculated taking into account the average blood pressure and compared with initial and control. […] Statistics.

For `C[N+](C)(C)NCCC(=O)[O-].O.O` [MD, 3-(Trimethylammonioamino)propanoate dihydrate], the “Rectal temperature 120 minutes after injection” value [1] was 36.2 ± 0.16 °C, the “Reduction in % (oedema)” value [2] was 34% and the “Volume of paw after injection of carrageneen” value [2] was 1.66 ± 0.10 mL. It also gave a CRP ([3]; 5 h after carrageneen) of 0.22 ± 0.014 mg/L, a CRP increase % ([3]; carrageneen control = 100) of 83% and a Tail bleeding time [4] of 10.5 ± 1.01 min. For the same compound, the “Tail bleeding time, %” value [4] was 118%, the “Temp. 15 min” value ([5]; MD 100 mg/kg p.o. alone) was 30.1 ± 0.39^$$ ° C and the “Temp. 30 min” value ([5]; MD 100 mg/kg p.o. alone) was 29.8 ± 0.38^$$$ ° C. For the same compound, the “Temp. 45 min” value ([5]; MD 100 mg/kg p.o. alone) was 30.0 ± 0.34^$$ ° C and the Max incr. % ([5]; MD 100 mg/kg p.o. alone) was 6%.

In the case of `O=C(O)c1cccnc1` [NA, nicotinic acid], the “HDL after 1 week (HDL1)” value [6] is reported as 111.3 ± 9.1 mg/dL, the “HDL after 2 weeks (HDL2)” value [6] is reported as 144.7 ± 13.5 mg/dL and the “HDL after 3 weeks (HDL3)” value [6] is reported as 127.3 ± 10.9 mg/dL. For the same compound, the “LDL after 1 week (LDL1)” value [6] was 216.3 ± 14.0 mg/dL, the “LDL after 2 weeks (LDL2)” value [6] was 250.3 ± 20.6 mg/dL and the “LDL after 3 weeks (LDL3)” value [6] was 265.1 ± 18.4 mg/dL. For the same compound, the “TG after 1 week (TG1)” value [6] was 734 ± 81.6 mg/dL, the “TG after 2 weeks (TG2)” value [6] was 860 ± 73.8 mg/dL and the “TG after 3 weeks (TG3)” value [6] was 828 ± 44.7 mg/dL. The “Total C after 1 week (C1)” value [6] was 345 ± 15.7 mg/dL, the “Total C after 2 weeks (C2)” value [6] was 401.1 ± 25.1 mg/dL and the “Total C after 3 weeks (C3)” value [6] was 405.5 ± 25.9 mg/dL. The Tail bleeding time [4] was 11.5 ± 1.39 min, the “Tail bleeding time, %” value [4] was 129% and the “Changes in blood flow, %” value [7] was 55.75 ± 11.5 %. For the same compound, the “Temp. 15 min” value ([5]; NA 40 mg/kg p.o.) was 32.3 ± 0.46 °C, the “Temp. 30 min” value ([5]; NA 40 mg/kg p.o.) was 33.1 ± 0.41 °C and the “Temp. 45 min” value ([5]; NA 40 mg/kg p.o.) was 32.4 ± 0.48 °C. It also gave a Max incr. % ([5]; NA 40 mg/kg p.o.) of 100%.
